Test results reported in US20190062846A1, “COMPOSITIONS AND METHODS FOR SCREENING PEDIATRIC GLIOMAS AND METHODS OF TREATMENT THEREOF” (DANA-FARBER CANCER INSTITUTE, INC., priority 2016, published 2019).

Columns and labels:
[1] = test system: mouse neural stem cells engineered to express MYB-QKI5 (short variant); experiment: Percentage viability of mouse neural stem cells after increased doses of inhibitor; format: cell-based; details: mNSCs expressing MYB-QKI5 (short variant); doses 0, 0.05, 0.1, 0.3, 0.5, 1 μM; in comparison with GFP-expressing mNSCs; FIG. 42C
Method: (§1) FIGS. 42A-D are a set of graphs showing percentage viability of mouse neural stem cells expressing GFP (FIG. 42A), truncated MYB (FIG. 42B), MYB-QKI5 (short variant) (FIG. 42C), and MYB-QKI6 (short variant) (FIG. 42D) after the treatment of increased doses (0, 0.05, 0.1, 0.3, 0.5, and 1 μM) of JQ1, THZ1 (“CDK7i”), and DMSO as negative control.
(§2) FIG. 44 is a graph showing the percentage viability of mouse neural stem cells expressing GFP (“GFP”), truncated MYB (“MYBtr”), MYB-QKI5 (short variant) (“MYBQKI5”), and MYB-QKI6 (short variant) (“MYBQKI6”) after the treatment of increased doses (0, 0.05, 0.1, 0.3, 0.5, and 1 μM) of dasatinib or DMSO as negative control.
(§3) Modifiers of the MYB pathway and key upstream and downstream effectors were examined for their ability to inhibit growth and induce death of cells expressing MYB-QKI fusion protein. […] Thus, cells expressing truncated MYB or MYB-QKI were specifically sensitive to inhibition of BET by JQ1.
(§4) 1,000 cells/well were plated in 96-well plates, with five replicates. Cell viability was measured by assessing ATP content using CellTiter-Glo (Promega). Means±s.e.m. were calculated.

[2] = test system: mouse neural stem cells engineered to express MYB-QKI6 (short variant); experiment: as above; format: cell-based; details: mNSCs expressing MYB-QKI6 (short variant); doses 0, 0.05, 0.1, 0.3, 0.5, 1 μM; in comparison with GFP-expressing mNSCs; FIG. 42D
Method: as §1, §2, §3, §4

[3] = test system: mouse neural stem cells engineered to express truncated MYB; experiment: as above; format: cell-based; details: mNSCs expressing truncated MYB; doses 0, 0.05, 0.1, 0.3, 0.5, 1 μM; in comparison with GFP-expressing mNSCs; FIG. 42B
Method: as §1, §2, §3, §4

[4] = test system: mouse neural stem cells engineered to express MYB-QKI5 (short variant); experiment: Cell growth of mouse neural stem cells over a time course; format: cell-based; details: mNSCs expressing MYB-QKI5 (short variant); 0.5 μM or 1 μM; 0, 1, 3, 5 days; in comparison with GFP-expressing mNSCs; FIG. 43C
Method: (§5) FIGS. 43A-D are a set of graphs showing cell growth of mouse neural stem cells expressing GFP (FIG. 43A), truncated MYB (FIG. 43B), MYB-QKI5 (short variant) (FIG. 43C), and MYB-QKI6 (short variant) (FIG. 43D) over a time course (0, 1, 3, and 5 days) in the presence of 0.5 μM or 1 μM of LY2835219 (“CDK4/6 inhibitor”).
(§6) Inhibition of CDK7 was also examined using a specific CDK7 inhibitor THZ1. […] Thus, cells expressing MYB-QKI were sensitive to inhibition of CDK7 by THZ1. This effect is specific with CDK7. […] Thus, cells expressing truncated MYB or MYB-QKI were specifically sensitive to inhibition of CDK7 by THZ1.
as §4

[5] = test system: mouse neural stem cells engineered to express MYB-QKI6 (short variant); experiment: as above; format: cell-based; details: mNSCs expressing MYB-QKI6 (short variant); 0.5 μM or 1 μM; 0, 1, 3, 5 days; in comparison with GFP-expressing mNSCs; FIG. 43D
Method: as §5, §6, §4

[6] = test system: mouse neural stem cells engineered to express truncated MYB; experiment: as above; format: cell-based; details: mNSCs expressing truncated MYB; 0.5 μM or 1 μM; 0, 1, 3, 5 days; in comparison with GFP-expressing mNSCs; FIG. 43B
Method: as §5, §6, §4

[7] = test system: MYB-QKI5 (short variant) fusion protein; experiment: Quantity of protein after treatment with DUB inhibitor; format: cell-based, human; details: after treatment with PR619; FIG. 45
Excerpt: (§7) FIG. 45 is a graph showing the quantity of truncated MYB or MYB-QKI fusion protein after the treatment with PR619.
(§8) Another possible approach of suppressing cells expressing truncated MYB or MYB-QKI is reducing the amount of the truncated MYB or MYB-QKI protein, for example, by increasing the degradation of this protein. DUBs remove ubiquitination and thereby increase the half-life of proteins. Thus, DUB inhibitors may accelerate the degradation of truncated MYB or MYB-QKI.
(§9) Cells were lysed and subjected to SDS-PAGE gradient gels as previously described3l. Blots were probed with antibodies against MYB (ab45150, Abcam at 1:500 dilution), QKI (A300-183A, Bethyl Laboratories at 1:1,000 dilution) and actin (sc-1615, Santa Cruz Biotechnology at 1:2,000 dilution).

[8] = test system: MYB-QKI6 (short variant) fusion protein; experiment: as above; format: cell-based, human; details: after treatment with PR619; FIG. 45
Excerpt: as §7, §8, §9

[9] = test system: truncated MYB ("MYBtr"); experiment: as above; format: cell-based, human; details: after treatment with PR619; FIG. 45
Excerpt: as §7, §8, §9

Row | SMILES | viability of cells [1] | viability of cells [2] | viability of cells [3] | also measured
1 | Cc1sc2c(c1C)C(c1ccc(Cl)cc1)=N[C@@H](CC(=O)OC(C)(C)C)c1nnc(C)n1-2 [JQ1] | significantly compromised the viability | significantly compromised the viability | significantly compromised the viability | 
2 | CCN1CCN(Cc2ccc(Nc3ncc(F)c(-c4cc(F)c5nc(C)n(C(C)C)c5c4)n3)nc2)CC1 [LY2835219] |  |  |  | cell growth [4]: did not strongly inhibit the growth; cell growth [5]: did not strongly inhibit the growth; cell growth [6]: did not strongly inhibit the growth
3 | N#CSc1cc(SC#N)c(N)nc1N [PR619] |  |  |  | amount of MYB-QKI5 (short variant) protein [7]: reduced the amount; amount of MYB-QKI6 (short variant) protein [8]: reduced the amount; amount of truncated MYB protein [9]: reduced the amount
4 | CN(C)C/C=C/C(=O)Nc1ccc(C(=O)Nc2cccc(Nc3ncc(Cl)c(-c4c[nH]c5ccccc45)n3)c2)cc1 [THZ1] | significantly compromised the viability | significantly compromised the viability | significantly compromised the viability | 
